This is an account of results in US20230242496A1, “SOX11 INHIBITORS FOR TREATING MANTLE CELL LYMPHOMA” (Icahn School of Medicine At Mount Sinai, priority 2020, published 2023).

A word on the IC50: it is the concentration that inhibits the measured activity by half. As usually defined, the viability is a read-out of living cells in per cent, often relative to untreated cells. Broadly, the Kd is a measure of binding affinity in units of concentration.

For assay [1], the system named is Jeko-1 (SOX11+). The assay can be described thus: Cell viability assay (CellTiter-Blue resazurin reduction). It counts as cell-based. As to conditions: Homo sapiens, JeKo-1, 72 h, JeKo-1 cells; for IC50: 0-40 μM; for viability at 20 µM: 20 μM compound, normalized to 0.2% DMSO. Summed up:
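Cells were exposed to compound for 72 h, then resazurin reduction (CellTiter-Blue, 2 h) was read by fluorescence and converted to viable cell number via a standard curve. Viability was normalised to 0.2% DMSO-treated cells. IC50 came from a sigmoidal dose-response fit, three separate experiments.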

The target in assay [2] is T1, (His)6-SOX11-DBD protein (Homo sapiens, UniProt P35716).
T1 construct: Recombinant (His)6-SOX11-DBD protein was immobilized
T1 sequence (P35716 49-117 limits assumed): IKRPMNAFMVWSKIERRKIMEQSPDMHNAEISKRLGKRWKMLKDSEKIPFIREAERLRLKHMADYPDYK
As to the kind of experiment: Surface Plasmon Resonance (SPR) assay. It counts as binding. As to conditions: immobilized recombinant (His)6-SOX11-DBD, 25° C., compounds 5-40 μM, mean of three experiments.

Consider `CC1Sc2ccc(C(=O)Nc3ccc(S(=O)(=O)Nc4ccccn4)cc3)cc2NC1=O` (centres unmarked), for which, in assay [1], the half-maximal inhibitory concentration (IC50) was above 20 µM and the viability at 20 µM worked out at 96.4%. In assay [2], the Kd was 130 µM.
Regarding `CC1Sc2ccc(C(=O)Nc3ccc(S(=O)(=O)Nc4ccc(F)cc4)cc3)cc2NC1=O` (centres unmarked), in assay [1], the half-maximal inhibitory concentration (IC50) is above 20 µM and the viability at 20 µM is 80.1%. The dissociation constant (Kd) in assay [2] came to 15.9 µM.
Regarding `CC1Sc2ccc(C(=O)Nc3ccc(S(=O)(=O)Nc4ccccc4)cc3)cc2N(C)C1=O` (centres unmarked), in assay [1], the IC50 amounted to 8 µM and the viability at 20 µM worked out at 1.23%. Also, the equilibrium dissociation constant (Kd) in assay [2] turned out to be 1.95 µM.
As to `Cc1ccc(NC(=O)c2ccc3c(c2)N(C)C(=O)CS3)cc1S(=O)(=O)N1CCCC1`, the viability at 20 µM in assay [1] is 90.9%. For the same compound, the Kd in assay [2] was found to be 35.9 µM.
As for `CC1Sc2ccc(C(=O)Nc3ccc(S(=O)(=O)Nc4ccc(N)cc4)cc3)cc2NC1=O` (centres unmarked), in assay [1], the 50% inhibitory concentration (IC50) is above 20 µM and the viability at 20 µM was determined as 88%. In addition, in assay [2], the Kd came out at 19.6 µM.
With `CC1Sc2ccc(C(=O)Nc3ccc(S(=O)(=O)N4CCCCC4)cc3)cc2NC1=O` (centres unmarked), in assay [1], the concentration for half-maximal inhibition (IC50) was 8 µM and the viability at 20 µM was 7.38%. In addition, the dissociation constant Kd in assay [2] amounted to 3.63 µM.
As for `CC1Sc2ccc(C(=O)Nc3ccc(S(=O)(=O)N4CCCC4)c(Cl)c3)cc2NC1=O` (centres unmarked), the viability at 20 µM in assay [1] was found to be 8.93%. In assay [2], the dissociation constant (Kd) was found to be 13.8 µM.
Take `O=C(Nc1ccc(S(=O)(=O)Nc2ccccc2)cc1)c1ccc2[nH]ncc2c1`: in assay [1], the IC50 was 20 µM and the viability at 20 µM came out at 47.6%. In addition, in assay [2], the Kd amounted to 78.5 µM.
On to `O=C(Nc1ccc(OCc2ccccc2)cc1)c1ccc2snnc2c1`, for which, in assay [1], the IC50 was above 20 µM and the viability at 20 µM was 93.6%. In addition, the Kd in assay [2] turned out to be 1.65 µM.
Turning to `O=C(Nc1cccc(OCc2ccccc2)c1)c1ccc2snnc2c1`, in assay [1], the concentration for half-maximal inhibition (IC50) is above 20 µM and the viability at 20 µM was 98.1%. Moreover, the Kd in assay [2] was 9.61 µM.
In the case of `CC1Sc2ccc(C(=O)Nc3cccc(S(=O)(=O)Nc4ccccc4C(F)(F)F)c3)cc2NC1=O` (centres unmarked), in assay [1], the half-maximal inhibitory concentration (IC50) is above 20 µM and the viability at 20 µM came out at 73.6%. Further, in assay [2], the equilibrium dissociation constant (Kd) is 91.7 µM.
On to `CN1C(=O)CSc2ccc(C(=O)Nc3ccc(S(=O)(=O)N4CCCC4)c(Cl)c3)cc21`, for which, in assay [1], the viability at 20 µM was determined as 16%. Moreover, the Kd in assay [2] came out at 27.4 µM.
Consider `CC1Sc2ccc(C(=O)Nc3ccc(CN(C)C(C)C)cc3)cc2NC1=O` (centres unmarked), for which the viability at 20 µM in assay [1] came to 105%. In assay [2], the equilibrium dissociation constant (Kd) came to 1.17 µM.
For the compound `CC1Sc2ccc(C(=O)Nc3ccc(S(=O)(=O)Nc4cccnc4)cc3)cc2NC1=O` (centres unmarked), in assay [1], the concentration for half-maximal inhibition (IC50) is above 20 µM and the viability at 20 µM worked out at 92%. In assay [2], the equilibrium dissociation constant (Kd) came out at 7.23 µM.
As for `CC1Sc2ccc(C(=O)Nc3ccc(S(=O)(=O)Nc4ccc(C(F)(F)F)cc4)cc3)cc2NC1=O` (centres unmarked), in assay [1], the IC50 was above 20 µM and the viability at 20 µM was 63.6%. Moreover, the Kd in assay [2] turned out to be 1.57 µM.
